Data: patent publication EP4755889A1, “COMPOUND FOR DETECTING AMYLOID-BETA OLIGOMER AND METHOD FOR DIAGNOSING DEGENERATIVE BRAIN DISEASE USING SAME” (Amyloid Solution Inc., priority 2024, dated 2025)

Key:
[1] = molecular target: T1, Aβ oligomer-albumin complex (Homo sapiens, UniProt P05067); assay: Plate-immobilized Aβ oligomer-albumin complexes versus Aβ oligomers; assay type: binding; settings: immobilized on a plate; IK15j (25 µM)
T1 construct: purchased Sigma-Aldrich (albumin)
Description: Full-length Aβ1-42 peptide was immobilized on a maleimide-activated microplate. Then, the plate was treated with additional Aβ1-42 peptide (10 µM) at 37°C for 8 hours. After peptide immobilization, unbound peptides were removed by washing three times with 200 µL of wash buffer. To form albumin-Aβ oligomer complexes, the plate was treated with albumin (10 µM, Sigma-Aldrich, USA) at room temperature for 24 hours, and unbound residues were removed by washing three times with 200 µL of wash buffer. The control Aβ oligomer wells were not treated with albumin. Each well was treated with the compound of the present disclosure (100 µM), and the signal of each sample was detected using a microplate reader (λex = 285 nm / λem = 475 nm).
Subsequently, both wells were treated with IK15j (25 µM), and the signals were compared (FIG. 9D).

Aβ oligomers (oAβ) = molecular target: T2, Aβ oligomers (oAβ) (Homo sapiens, UniProt P05067); assay: Fluorescence on plate-immobilized Aβ monomers and oligomers; assay type: binding; settings: mAβ and oAβ at 10 µM each immobilized on a plate; IK15j (100 µM) for 24 hours
T2 construct: Full-length and fragmented peptides of Aβ1-42 were individually dissolved in DMSO
Description: Briefly, to remove the bovine serum albumin coating from the plate, each well of the plate was washed three times with 200 µL of wash buffer (0.1 M sodium phosphate, 0.15 M sodium chloride, 0.05 % Tween-20, pH 7.2). Full-length and fragmented peptides of Aβ1-42 were individually dissolved in DMSO to prepare […] stock solutions, which were then diluted with binding buffer (0.1 M sodium phosphate, 0.15 M sodium chloride, 10 mM EDTA, pH 7.2) to prepare 50 µg/mL peptide solutions (5 % DMSO). 100 µL of the peptide solution was added to each well and allowed to react with the maleimide at room temperature overnight. After peptide immobilization, unbound peptides were removed by washing three times with 200 µL of wash buffer. […]
In addition, considering that EPPS might interfere with the interaction between IK15j and Aβ monomers, Aβ monomers and oligomers were immobilized on a plate according to the Aβ immobilization protocol of Reference Example 2, and then incubated with IK15j. Briefly, Aβ monomers (mAβ) and Aβ oligomers (oAβ) at 10 µM each were immobilized on a plate, treated with IK15j (100 µM) for 24 hours, and the fluorescence intensity was then measured; blank wells were treated with IK15j (100 µM) alone without immobilization of Aβ species.

[2] = test system: insoluble plaques in the 5XFAD mouse brain; assay: Brain staining of AD mouse model with compound and anti-Aβ antibody 6E10; settings: 5XFAD brain sections; co-staining with 6E10
Description: Mouse brain tissues were fixed in 4 % paraformaldehyde (Biosesang, Korea) at 4 °C overnight and then cryoprotected by immersion in 30 % sucrose for 48 hours. Brain sections (25 µm) were cut using a cryostat (CM1860, Leica) and mounted on slides. The brain tissue sections were treated with the compound of the present disclosure (500 µM) overnight at room temperature. After washing with 1X PBS, antigen retrieval for the fixed brain sections was performed in 1X PBS (Gibco, Korea) containing 1 % SDS (Biosesang, Korea) for 10 minutes, followed by blocking with 20 % horse serum in 1X PBS. After blocking for 1 hour, the slides were incubated with mouse monoclonal antibody 6E10 (1:200, BioLegend, USA) at room temperature for 1 hour. […] After staining the cortical and hippocampal regions of the fixed brain, each brain slide was visualized using a fluorescence microscope (DM500, Leica) equipped with filter cubes containing excitation and emission filters: N2.1 filter cube for detecting 6E10 staining (Excitation filter: BP 515-560; Dichromatic mirror: 580; Emission filter: LP 590) and L5 filter cube for detecting the compound of the present disclosure (Excitation filter: BP 480/40; Dichromatic mirror: 505; Emission filter: BP 527/30). […]

Aβ1-42 oligomers = molecular target: T3, Aβ1-42 oligomers (Homo sapiens, UniProt P05067); assay: Selectivity for Aβ variant oligomers (fluorescence); assay type: binding; settings: oligomeric Aβ variants 10 µM each; IK15j (10 µM)
T3 construct: Aβ1-42 peptide was aggregated at 37 °C for 8 hours
Description: Accordingly, Aβ variant oligomers were prepared and incubated with IK15j to investigate the selectivity of the compound for Aβ variants. Briefly, samples of oligomeric Aβ1-40, Aβ1-42, and AβpE3-42 (10 µM each) were each treated with IK15j (10 µM), and the fluorescence intensity of each Aβ variant sample was measured.

T3 sequence (P05067 672-713): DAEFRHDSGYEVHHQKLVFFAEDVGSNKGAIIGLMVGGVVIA
T1 sequence (P05067 672-713, one chain of several): as the sequence (P05067 672-713) above
T2 sequence (P05067 672-713): as above

- fluorescence signal with Aβ oligomers in contrast to Aβ monomers (Aβ oligomers (oAβ)): markedly increased
- fluorescence intensity in the presence of Aβ1-42 oligomers compared to Aβ1-40 or AβpE3-42 oligomers (Aβ1-42 oligomers): increased markedly
Structure (SMILES): Cc1ccc2c(c1)c(-c1ccccc1)cn1c(C)cc(C#N)c21 [IK15j, 3,8-dimethyl-6-phenylpyrrolo[2,1-a]isoquinoline-1-carbonitrile]
- fluorescence intensity, Aβ oligomer-albumin complex versus Aβ oligomers alone [1]: no significant difference in fluorescence intensity
- signal in hippocampal and cortical regions (brain staining) [2]: no signal
